# Data from patent EP4793641A1, “NOVEL METHOD FOR ANALYZING BIOMOLECULAR INTERACTIONS” (Kyoto University, priority 2023, dated 2025).
# Non-standard residues stand in square brackets, D forms with d. Residues, ends and D or L forms follow the SMILES beside them. Primed or numbered codes have the meaning given here. No end group written: not given here. *: point of attachment. 5FAM = O=C1OC2(c3ccc(O)cc3Oc3cc(O)ccc32)c2ccc(C(=O)*)cc21; Me′ = methyl group capping the C-terminus; F(-Me) = not defined here; Mob = COc1ccc(C*)cc1
# B1: FIYM44 (peptide)
# peptide: KFEKEKMNC(Me)KWMT
# B2: FIYM52 (peptide)
# peptide: DFEKEKMNCKWMT
# B3: FIYM19 (peptide)
# peptide: K[F(-Me)]EKEKMNCKWMT
# modifications: reading uncertain; also: printed as KF(-Me)EKEKMNCKWMT
# B4: FIYM50 (peptide)
# peptide: KYEKEKMNAKWDT
# B5: FIYM15 (peptide)
# peptide: Ace-KFEKEKMNCKWMT-{Me′}
# B6: FIYM51 (peptide)
# peptide: KYEKEKMNCKWMT
# B7: FIYM21 (peptide)
# peptide: 5FAM-KFEKEKMNCKWMT
# B8: FIYM31 (peptide)
# peptide: RFEKEKMMCKWMT
# B9: FIYM53 (peptide)
# peptide: EFEKEKMNCKWMT
# Target: T1, interactions between Talin 1 (TLN1) and integrin subunit beta (ITGB) (Homo sapiens, UniProt Q9Y490)
# T1 construct: LgBit or SmBit (N-terminal of the HaloTag); made in house
# Assay: Flip-flop detection mechanism on DNA origami (LgBit/SmBit luminescence), inhibitor screening
# Type: biochemical
# Conditions: inhibition of binding between TLN1 and ITBG
# Source text: Two types of systems, i.e., flip-flop detection mechanism and switch detection mechanism, were constructed by using HaloTag, LgBit, SmBit, TLN1, and ITGB. Each of TLN1 (Uniprot ID: Q9Y490) and ITGB1 (Uniprot ID: P05556) was cloned from the registered genetic information. HaloTAg has three chemically modifiable locations at a ligand recognition site, C-terminus, and N-terminus. In this Example, a single-stranded DNA for attaching to DNA origami was connected to a ligand recognition site of HaloTag, a subunit of an interaction complex was connected to the C-terminus, and LgBit or SmBit was connected to the N-terminus.
# The outline of the system is disclosed in Figure 23. When TLN1 and ITBG are in a bound state in this system, LgBit and SmBit are at spatially separated positions from each other, with a HaloTag interposed therebetween. In this regard, if an inhibitor is added, complex formation of TLN1 and ITBG is inhibited. As a result, a LgBit-SmBit complex can be formed, and a luminescence reaction progresses.
# As a candidate drug for inhibiting the binding between TLN1 and ITBG, peptide inhibitors consisting of 13 amino acids prepared by modifying amino acids in an intracellular region of ITGB3 have been designed (Shen B. et al., A directional switch of integrin signaling and a new antithrombotic strategy. Nature 503, 131-135 (2013)). IC50 values for the peptides shown in the following table were calculated by using the flip-flop detection mechanism described in Example 11 for optimizing the sequence. In this manner, the effect of a large number of compounds on the interaction with a target protein can be readily analyzed in the system of the present disclosed.
row,Inhibitory activity,Molecule
1,no inhibition,CSCC[C@H](NC(=O)[C@H](Cc1c[nH]c2ccccc12)NC(=O)[C@H](CCCCN)NC(=O)[C@H](CS)NC(=O)[C@H](CC(N)=O)NC(=O)[C@H](CCSC)NC(=O)[C@H](CCCCN)NC(=O)[C@H](CCC(=O)O)NC(=O)[C@H](CCCCN)NC(=O)[C@H](CCC(=O)O)NC(=O)[C@@H](N)Cc1ccccc1)C(=O)O [FIYM24] (H-FEKEKMNCKWM-OH)
2,no inhibition,CSCC[C@H](NC(=O)[C@H](CCCNC(=N)N)NC(=O)[C@H](CCC(=O)O)NC(=O)[C@H](CCCCN)NC(=O)[C@H](CCC(=O)O)NC(=O)[C@H](Cc1ccccc1)NC(=O)[C@@H](N)CCCCN)C(=O)N[C@@H](CCSC)C(=O)N[C@@H](CS)C(=O)N[C@@H](CCCCN)C(=O)N[C@@H](Cc1c[nH]c2ccccc12)C(=O)N[C@@H](CCSC)C(=O)N[C@H](C(=O)O)[C@@H](C)O [FIYM33] (H-KFEKERMMCKWMT-OH)
3,no inhibition,COc1ccc(CSC[C@H](NC(=O)[C@H](CC(N)=O)NC(=O)[C@H](CCSC)NC(=O)[C@H](CCCCN)NC(=O)[C@H](CCC(=O)O)NC(=O)[C@H](CCCCN)NC(=O)[C@H](CCC(=O)O)NC(=O)[C@H](Cc2ccccc2)NC(=O)[C@@H](N)CCCCN)C(=O)N[C@@H](CCCCN)C(=O)N[C@@H](Cc2c[nH]c3ccccc23)C(=O)N[C@@H](CCSC)C(=O)N[C@H](C(=O)O)[C@@H](C)O)cc1 [FIYM42] (H-KFEKEKMNC(Mob)KWMT-OH)
4,no inhibition,CSCC[C@H](NC(=O)[C@H](Cc1c[nH]c2ccccc12)NC(=O)[C@H](CCCCN)NC(=O)[C@H](CS)NC(=O)[C@H](CC(N)=O)NC(=O)[C@H](CCSC)NC(=O)[C@H](CCCCN)NC(=O)[C@H](CCC(=O)O)NC(=O)[C@H](CCCCN)NC(=O)[C@H](CCC(=O)O)NC(=O)[C@H](Cc1ccccc1)NC(=O)[C@@H](N)CCCCN)C(=O)N[C@@H](CCCCN)C(=O)O [FIYM11] (H-KFEKEKMNCKWMK-OH)
5,no inhibition,CSCC[C@H](NC(=O)[C@H](Cc1c[nH]c2ccccc12)NC(=O)[C@H](CCCCN)NC(=O)[C@H](CS)NC(=O)[C@H](CC(N)=O)NC(=O)[C@H](CCSC)NC(=O)[C@H](CCCCN)NC(=O)[C@H](CCC(=O)O)NC(=O)[C@H](CCCCN)NC(=O)[C@H](CCC(=O)O)NC(=O)[C@H](Cc1ccccc1)NC(=O)[C@@H](N)CCCCN)C(=O)N[C@@H](CCCNC(=N)N)C(=O)O [FIYM12] (H-KFEKEKMNCKWMR-OH)
6,no inhibition,CSCC[C@H](NC(=O)[C@H](CCCCN)NC(=O)[C@H](CCC(=O)O)NC(=O)[C@H](CCCCN)NC(=O)[C@H](CCC(=O)O)NC(=O)[C@H](Cc1ccccc1)NC(=O)[C@H](CCCCN)NC(=O)[C@H](C)NC(=O)[C@H](Cc1ccccc1)NC(=O)[C@@H](N)CCC(=O)O)C(=O)N[C@@H](CC(N)=O)C(=O)N[C@@H](C)C(=O)N[C@@H](CCCCN)C(=O)N[C@@H](Cc1c[nH]c2ccccc12)C(=O)N[C@@H](CC(=O)O)C(=O)N[C@H](C(=O)O)[C@@H](C)O [FIYM5] (H-EFAKFEKEKMNAKWDT-OH)
7,no inhibition,CSCC[C@H](NC(=O)[C@H](CCCNC(=N)N)NC(=O)[C@H](CCC(=O)O)NC(=O)[C@H](CCCCN)NC(=O)[C@H](CCC(=O)O)NC(=O)[C@H](Cc1ccccc1)NC(=O)[C@@H](N)CCCNC(=N)N)C(=O)N[C@@H](CC(N)=O)C(=O)N[C@@H](CS)C(=O)N[C@@H](CCCCN)C(=O)N[C@@H](Cc1c[nH]c2ccccc12)C(=O)N[C@@H](CCSC)C(=O)N[C@H](C(=O)O)[C@@H](C)O [FIYM30] (H-RFEKERMNCKWMT-OH)
8,no inhibition,CC[C@H](C)[C@H](NC(=O)[C@@H]1CCCN1C(=O)[C@H](CC(N)=O)NC(=O)[C@H](CCC(=O)O)NC(=O)[C@H](CCC(N)=O)NC(=O)[C@@H](NC(=O)[C@@H](NC(=O)[C@H](CCCNC(=N)N)NC(=O)[C@H](Cc1c[nH]c2ccccc12)NC(=O)[C@H](CCCCN)NC(=O)[C@H](CS)NC(=O)[C@H](CC(N)=O)NC(=O)[C@H](CCSC)NC(=O)[C@H](CCCCN)NC(=O)[C@H](CCC(=O)O)NC(=O)[C@H](CCCCN)NC(=O)[C@H](CCC(=O)O)NC(=O)[C@H](Cc1ccccc1)NC(=O)[C@@H](N)CCCCN)C(C)C)[C@@H](C)O)C(=O)N[C@@H](Cc1ccc(O)cc1)C(=O)N[C@@H](CCCCN)C(=O)O [FIYM56] (H-KFEKEKMNCKWRVTQENPIYK-OH)
9,no inhibition,CSCC[C@H](NC(=O)[C@H](CCCCN)NC(=O)[C@H](CCC(=O)O)NC(=O)[C@H](CCCCN)NC(=O)[C@H](CCC(=O)O)NC(=O)[C@H](Cc1ccccc1)NC(=O)[C@@H](N)CCCCN)C(=O)N[C@@H](CC(N)=O)C(=O)N[C@H](C(=O)N[C@@H](CCCCN)C(=O)N[C@@H](Cc1c[nH]c2ccccc12)C(=O)N[C@@H](CCSC)C(=O)N[C@H](C(=O)O)[C@@H](C)O)[C@@H](C)O [FIYM34] (H-KFEKEKMNTKWMT-OH)

# Same assay, conditions: inhibition of binding between TLN1 and ITBG, read-out: Inhibitory activity
row,IC50 [µM],Molecule
1,41.2,Ace-KFEKEKMNCKWMT-Me (Ace-KFEKEKMNCKWMT-{Me′}) [FIYM15]
2,314,C[C@H](NC(=O)[C@H](CCCNC(=N)N)NC(=O)[C@H](C)NC(=O)[C@H](CCCNC(=N)N)NC(=O)[C@H](CCC(=O)O)NC(=O)[C@H](CCC(=O)O)NC(=O)[C@H](CCC(=O)O)NC(=O)[C@H](Cc1ccccc1)NC(=O)[C@@H](N)CCCCN)C(=O)N[C@@H](CCCCN)C(=O)N[C@@H](Cc1c[nH]c2ccccc12)C(=O)N[C@@H](CC(=O)O)C(=O)N[C@H](C(=O)O)[C@@H](C)O [FIYM45] (H-KFEEERARAKWDT-OH)

# Same assay, conditions: inhibition of binding between TLN1 and ITBG, µM, read-out: Inhibitory activity
row,IC50 [µM],Molecule
1,71.4,CSCC[C@H](NC(=O)[C@H](CCCCN)NC(=O)[C@H](CCC(=O)O)NC(=O)[C@H](CCCCN)NC(=O)[C@H](CCC(=O)O)NC(=O)[C@H](Cc1ccccc1)NC(=O)[C@@H](N)CCSC)C(=O)N[C@@H](CC(N)=O)C(=O)N[C@@H](CS)C(=O)N[C@@H](CCCCN)C(=O)N[C@@H](Cc1c[nH]c2ccccc12)C(=O)N[C@@H](CCSC)C(=O)N[C@H](C(=O)O)[C@@H](C)O [FIYM47] (H-MFEKEKMNCKWMT-OH)

# Target: Talin 1 (TLN1) (UniProt Q9Y490)
# Assay: flip-flop luminescence detection on DNA origami, inhibition of the TLN1-ITGB complex
# Conditions: not given
# Chain of Talin 1 (TLN1) (Q9Y490 1-405): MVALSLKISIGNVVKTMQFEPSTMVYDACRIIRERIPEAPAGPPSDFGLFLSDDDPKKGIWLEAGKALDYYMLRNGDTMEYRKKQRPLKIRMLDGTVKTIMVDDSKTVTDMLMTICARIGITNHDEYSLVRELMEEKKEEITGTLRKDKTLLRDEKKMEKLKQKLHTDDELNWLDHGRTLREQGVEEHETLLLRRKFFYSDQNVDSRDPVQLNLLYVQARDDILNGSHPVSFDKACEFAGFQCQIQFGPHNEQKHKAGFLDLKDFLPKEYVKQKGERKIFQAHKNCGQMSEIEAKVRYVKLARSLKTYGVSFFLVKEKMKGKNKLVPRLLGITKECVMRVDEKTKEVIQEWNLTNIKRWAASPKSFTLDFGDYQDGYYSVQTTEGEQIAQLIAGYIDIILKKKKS
row,IC50 [µM],Molecule
1,1070,B1
2,8130,B2
3,212,B3
4,1860,B4
5,41.2,B5
6,1830,B6
7,38.1,B7
8,1040,B8
9,42000,B9
